Read-outs that look alike come from different tables or passages of the source.
Target: T1, P2X7 receptor (Homo sapiens, UniProt Q99572)
T1 construct: endogenous in cells; host or cells: THP-1 cells differentiated with LPS and IFN-γ
T1 sequence (Q99572 1-595): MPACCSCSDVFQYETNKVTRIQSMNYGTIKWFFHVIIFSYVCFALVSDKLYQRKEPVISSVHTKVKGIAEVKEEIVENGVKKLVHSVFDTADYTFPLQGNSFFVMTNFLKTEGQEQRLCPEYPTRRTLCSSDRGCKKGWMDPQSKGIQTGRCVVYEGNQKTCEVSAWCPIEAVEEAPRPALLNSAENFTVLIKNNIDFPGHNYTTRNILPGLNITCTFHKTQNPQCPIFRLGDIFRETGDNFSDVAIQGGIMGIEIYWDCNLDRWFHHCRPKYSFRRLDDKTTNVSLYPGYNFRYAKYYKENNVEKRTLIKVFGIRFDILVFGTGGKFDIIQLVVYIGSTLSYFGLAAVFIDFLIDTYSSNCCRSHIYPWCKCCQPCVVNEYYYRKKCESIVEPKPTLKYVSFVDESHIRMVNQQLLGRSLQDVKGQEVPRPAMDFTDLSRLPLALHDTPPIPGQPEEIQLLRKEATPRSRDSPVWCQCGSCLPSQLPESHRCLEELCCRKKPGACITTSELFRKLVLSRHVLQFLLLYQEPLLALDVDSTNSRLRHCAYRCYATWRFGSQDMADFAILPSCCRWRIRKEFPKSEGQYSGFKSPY
Test: IL-1β release assay in differentiated THP-1 cells stimulated with BzATP (Example 9)
Format: cell-based
Conditions: for inhibition at 0.3 µM: 0.3 μM concentration, read-out: IL-1β % Inhib. @ 0.3 or 0.1 μM; for IC50: four parameter logistic fit
Protocol: The cells are then pretreated for 30 minutes with the compound of interest at the appropriate concentration in RPMI media containing 100 IU/mL penicillin, 100 ug/mL streptomycin. […] 30 uL of cell supernatant is then collected and IL-1β levels determined via ELISA (R&D systems Cat. # HSLB50) according to manufacturer's recommendations using the Tecan Safire plate reader. Background adjusted IL-1β levels of drug treated and non-treated cells are used to calculate the percent inhibition.
The compounds set forth in Table 1 were tested for activity in a cellular model as described herein. […] Measurements were made and IC50 values, presented in Table 2, below, were determined by fitting the data to a four parameter logistic equation using GraphPad Prism software (GraphPad Software, Inc). The equation may be expressed by the following formula:
Y=Bottom+(Top-Bottom)/(1+10̂((Log EC50−X)*HillSlope))
Where X is the logarithm of concentration, Y is the response and Y starts at Bottom and goes to Top with a sigmoid shape.

| SMILES | inhibition at 0.3 µM | IC50 (read-out: IL-1β IC50) | IC50 (IL-1β IC50 (nM)) |
| --- | --- | --- | --- |
| CC(C(=O)Nc1cccc2c(=O)n([C@H]3CCNC3)ccc12)c1ccc(Cl)cc1 (stereo partly drawn) [ID 823] | > 76% | 42.5 nM | – |
| O=C(CC1CCCCCC1)Nc1cccc2c(=O)n([C@H]3CCNC3)ccc12 [ID 824] | > 76% | 3.2 nM | – |
| O=C(Cc1ccc(Cl)c(Cl)c1)Nc1cccc2c(=O)n([C@@H]3CCNC3)ccc12 [ID 827] | > 76% | 25.5 nM | – |
| CC(C(=O)Nc1cccc2c(=O)n(C3CCNC3)ccc12)c1ccc(Cl)c(Cl)c1 (stereo not drawn) [ID 831] | 51 to 75% | 154 nM | – |
| C[C@H](C(=O)Nc1cccc2c(=O)n([C@H]3CCNC3)ccc12)c1ccc(Cl)c(Cl)c1 [ID 832] | > 76% | 73.6 nM | – |
| CC(C(=O)Nc1cccc2c(=O)n([C@@H]3CCNC3)ccc12)c1ccc(Cl)cc1 (stereo partly drawn) [ID 835] | 51 to 75% | 151 nM | – |
| O=C(Cc1ccc(Cl)c(C(F)(F)F)c1)Nc1cccc2c(=O)n([C@H]3CCNC3)ccc12 [ID 836] | – | 16 nM | – |
| O=C(CC1(O)CCCCCC1)Nc1cccc2c(=O)n([C@@H]3CCNC3)ccc12 [ID 837] | 51 to 75% | 275 nM | – |
| Cc1cc(-n2ccc3c(NC(=O)C(C)c4ccc(Cl)c(C(F)(F)F)c4)cccc3c2=O)n[nH]1 (stereo not drawn) [ID 838] | > 76% | 14.9 nM | – |
| CC(C(=O)Nc1cccc2c(=O)n(-c3cc[nH]n3)ccc12)c1ccc(Cl)c(C(F)(F)F)c1 (stereo not drawn) [ID 839] | > 76% | 14.1 nM | – |
| CC(C(=O)Nc1cccc2c(=O)n(-c3n[nH]cc3C#N)ccc12)c1ccc(Cl)c(C(F)(F)F)c1 (stereo not drawn) [ID 840] | > 76% | 37.6 nM | – |
| O=C(CC12CC3CC(CC(C3)C1)C2)Nc1cccc2c(=O)n(-c3cc[nH]n3)ccc12 [ID 841] | > 76% | 0.295 nM | – |
| O=C(Cc1ccc(Cl)c(C(F)(F)F)c1)Nc1cccc2c(=O)n(-c3cc[nH]n3)ccc12 [ID 842] | > 76% | 1.24 nM | – |
| CC(C(=O)Nc1cccc2c(=O)n(-c3cc[nH]n3)ccc12)C1CCCCCC1 (stereo not drawn) [ID 843] | > 76% | 12.2 nM | – |
| O=C(CC1CCCCCC1)Nc1cccc2c(=O)n(-c3cc[nH]n3)ccc12 [ID 844] | > 76% | 3.33 nM | – |
| O=C(Cc1cccc(C(F)(F)F)c1F)Nc1cccc2c(=O)n(C3CN4CCC3CC4)ccc12 (stereo not drawn) [ID 845] | > 76% | 134 nM | – |
| O=C(Cc1ccc(Cl)cc1F)Nc1cccc2c(=O)n(C3CN4CCC3CC4)ccc12 (stereo not drawn) [ID 846] | > 76% | 162 nM | – |
| O=C(Cc1ccc(Cl)c(C(F)(F)F)c1)Nc1cccc2c(=O)n(-c3cccnc3N3CCOCC3)ccc12 [ID 848] | > 76% | 44.4 nM | – |
| O=C(CC1(O)CCCCCC1)Nc1cccc2c(=O)n([C@H]3CCNC3)ccc12 [ID 849] | 0 to 25% | 403 nM | – |

| SMILES | inhibition at 0.3 µM | IC50 (read-out: IL-1β IC50) | IC50 (IL-1β IC50 (nM)) |
| --- | --- | --- | --- |
| O=C(CC12CC3CC(CC(C3)C1)C2)Nc1cccc2c(=O)n(C3CN4CCC3CC4)ccc12 (stereo not drawn) [ID 850] | > 76% | – | 1.88 nM |
| Cc1ncccc1-n1ccc2c(NC(=O)Cc3ccc(C(F)(F)F)cc3)cccc2c1=O [ID 851] | > 76% | 147 nM | – |
| Cc1ccncc1-n1ccc2c(NC(=O)Cc3cccc(C(F)(F)F)c3F)cccc2c1=O [ID 852] | > 76% | 43.1 nM | – |
| Cc1ccncc1-n1ccc2c(NC(=O)Cc3ccc(C(F)(F)F)cc3)cccc2c1=O [ID 853] | 51 to 75% | 245 nM | – |
| Cc1ncccc1-n1ccc2c(NC(=O)Cc3cccc(C(F)(F)F)c3F)cccc2c1=O [ID 854] | > 76% | 27.1 nM | – |
| Cc1ccncc1-n1ccc2c(NC(=O)Cc3ccc(C(F)(F)F)c(F)c3)cccc2c1=O [ID 856] | > 76% | 129 nM | – |
| Cc1ncccc1-n1ccc2c(NC(=O)Cc3ccc(F)c(Cl)c3)cccc2c1=O [ID 857] | > 76% | 75.7 nM | – |
| Cc1ncccc1-n1ccc2c(NC(=O)Cc3ccc(Cl)c(F)c3)cccc2c1=O [ID 858] | > 76% | 32.8 nM | – |
| Cc1ncccc1-n1ccc2c(NC(=O)Cc3ccc(Cl)cc3F)cccc2c1=O [ID 859] | > 76% | 50.1 nM | – |
| Cc1ncccc1-n1ccc2c(NC(=O)Cc3ccc(F)c(C(F)(F)F)c3)cccc2c1=O [ID 860] | > 76% | 13.9 nM | – |
| Cc1ncccc1-n1ccc2c(NC(=O)C(C)c3cccc(C(F)(F)F)c3F)cccc2c1=O (stereo not drawn) [ID 862] | > 76% | 17.2 nM | – |
| Cc1ncccc1-n1ccc2c(NC(=O)[C@H](C)c3ccc(Cl)cc3)cccc2c1=O [ID 863] | > 76% | 43 nM | – |
| Cc1ncccc1-n1ccc2c(NC(=O)[C@@H](C)c3ccc(Cl)cc3)cccc2c1=O [ID 864] | > 76% | 111 nM | – |
| Cc1ncccc1-n1ccc2c(NC(=O)Cc3ccc(C(F)(F)F)cc3F)cccc2c1=O [ID 865] | > 76% | 76.7 nM | – |
| Cc1ncccc1-n1ccc2c(NC(=O)Cc3cc(F)c(F)c(F)c3)cccc2c1=O [ID 866] | 51 to 75% | 98.5 nM | – |
| Cc1ncccc1-n1ccc2c(NC(=O)Cc3ccc(F)c(F)c3F)cccc2c1=O [ID 867] | > 76% | 40.5 nM | – |
| Cc1ncccc1-n1ccc2c(NC(=O)Cc3ccc(C(F)(F)F)cc3C(F)(F)F)cccc2c1=O [ID 868] | > 76% | 68.7 nM | – |
| Cc1ncccc1-n1ccc2c(NC(=O)Cc3ccc(Cl)c(Cl)c3)cccc2c1=O [ID 869] | > 76% | 43.9 nM | – |
| O=C(Cc1ccc(Cl)c(C(F)(F)F)c1)Nc1cccc2c(=O)n(-c3cccnc3F)ccc12 [ID 870] | > 76% | 4.97 nM | – |

| SMILES | inhibition at 0.3 µM | IC50 (read-out: IL-1β IC50) | IC50 (IL-1β IC50 (nM)) |
| --- | --- | --- | --- |
| O=C(Cc1ccc(F)c(C(F)(F)F)c1)Nc1cccc2c(=O)n(-c3cccnc3F)ccc12 [ID 872] | > 76% | 30.4 nM | – |
| O=C(Cc1ccc(Cl)c(F)c1)Nc1cccc2c(=O)n(-c3cccnc3F)ccc12 [ID 873] | > 76% | 31.4 nM | – |
| O=C(Cc1cccc(C(F)(F)F)c1F)Nc1cccc2c(=O)n(-c3cccnc3F)ccc12 [ID 874] | > 76% | 27.9 nM | – |
| CC(C(=O)Nc1cccc2c(=O)n(-c3cccnc3F)ccc12)c1cccc(C(F)(F)F)c1F (stereo not drawn) [ID 875] | > 76% | 8.32 nM | – |
| O=C(Cc1ccc(Cl)c(Cl)c1)Nc1cccc2c(=O)n(C3CC3)ccc12 [ID 876] | > 76% | 15 nM | – |
| O=C(Cc1ccc(C(F)(F)F)cc1)Nc1cccc2c(=O)n(C3CC3)ccc12 [ID 877] | > 76% | 23.7 nM | – |
| O=C(CC1CCCCCC1)Nc1cccc2c(=O)n(C3CC3)ccc12 [ID 878] | > 76% | 2.21 nM | – |
| O=C(Cc1ccc(C(F)(F)F)c(F)c1)Nc1cccc2c(=O)n(C3CC3)ccc12 [ID 879] | > 76% | 6.79 nM | – |
| O=C(Cc1ccc(C(F)(F)F)cc1C(F)(F)F)Nc1cccc2c(=O)n(C3CC3)ccc12 [ID 880] | > 76% | 67.8 nM | – |
| O=C(Cc1ccc(F)c(Cl)c1)Nc1cccc2c(=O)n(C3CC3)ccc12 [ID 881] | > 76% | 4.32 nM | – |
| O=C(Cc1ccc(Cl)c(F)c1)Nc1cccc2c(=O)n(C3CC3)ccc12 [ID 882] | > 76% | 6.04 nM | – |
| O=C(Cc1cccc(C(F)(F)F)c1F)Nc1cccc2c(=O)n(C3CC3)ccc12 [ID 885] | > 76% | 0.322 nM | – |
| O=C(Cc1cccc(C(F)(F)F)c1F)Nc1cccc2c(=O)n(C3CCC3)ccc12 [ID 886] | > 76% | 20.3 nM | – |
| O=C(Cc1ccc(C(F)(F)F)cc1F)Nc1cccc2c(=O)n(C3CCC3)ccc12 [ID 887] | > 76% | 28.5 nM | – |
| O=C(Cc1ccc(Cl)cc1F)Nc1cccc2c(=O)n(C3CCC3)ccc12 [ID 888] | > 76% | 14.4 nM | – |
| O=C(CC12CC3CC(CC(C3)C1)C2)Nc1cccc2c(=O)n(C3CC3)ccc12 [ID 889] | > 76% | 0.777 nM | – |
| O=C(Cc1ccc(Cl)c(C(F)(F)F)c1)Nc1cccc2c(=O)n(C3CC3)ccc12 [ID 890] | > 76% | 4.33 nM | – |
| O=C(Cc1ccc(C(F)(F)F)cc1)Nc1cccc2c(=O)n(C3CCC3)ccc12 [ID 891] | 51 to 75% | 283 nM | – |

— patent US20090298825A1, “Bicycloheteroaryl Compounds as P2x7 Modulators and Uses Thereof” (priority 2006, published 2009)
